{
  "source": "patent US10265286B2",
  "about": "“Sequelae of cardiopulmonary bypass-induced pulmonary injury” (Vanderbilt University, priority 2016, dated 2019)",
  "assay": "Hemodynamics (mean arterial blood pressure) after intravenous citrulline in piglets",
  "type": "in vivo, Duroc swine",
  "settings": "600 mg/kg IV",
  "experimental": "The objective was to assess the safety of intravenous citrulline and its effect on serum arginine levels in piglets. A total of 9 Duroc swine, aged 5-21 days, with a target minimum weight of 4 kg were utilized. All piglets underwent anesthetic induction and tracheostomy. Central lines were placed in the femoral artery and femoral vein and hemodynamics monitored continuously. Citrulline (600 mg/kg IV) was administered to 5 piglets. Saline was given to control animals. Serum amino acids were drawn before and each hour after citrulline administration.",
  "data": [
    {"smiles": "NC(=O)NCCCC(N)C(=O)O", "note": "(centres unmarked) [Citrulline, 2-amino-5-(carbamoylamino)pentanoic acid]", "values": [
      {"measurement": "hemodynamic instability", "result": "No hemodynamic instability"},
      {"measurement": "Mean Arterial Blood Pressures", "setting": "1 hour post", "result": 67.4, "unit": "mmHg"},
      {"measurement": "Mean Arterial Blood Pressures", "setting": "2 hours post", "result": 64.8, "unit": "mmHg"},
      {"measurement": "Mean Arterial Blood Pressures", "setting": "3 hours post", "result": 62.2, "unit": "mmHg"},
      {"measurement": "Mean Arterial Blood Pressures", "setting": "Pre-dose", "result": 67.0, "unit": "mmHg"}
    ]}
  ]
}
